Assay results from patent US12637472B2, “Benzimidazole heteroatom-containing spiro compound and medicinal use thereof” (Changzhi University, priority 2023, dated 2026).

Tests used:
Assay type in all cases: cell-based
[1] = test system: Human liver tumor cells HepG2; test: MTT in vitro cell proliferation inhibition experiment, HepG2; conditions: Homo sapiens, MTT method, 48 h contact between compound and cell, read-out: Antiproliferative activity (IC50, μM) HepG2
Experimental: (§1) Human liver tumor cells HepG2, human colon cancer cells HCT116, and human gastric adenocarcinoma cells AGS were purchased from the Institute of Basic Medical Sciences, Chinese Academy of Medical Sciences. The cells each were preserved and passaged in the laboratory of the present disclosure according to respective cultivation data. Each cell line was routinely inoculated in a 50 mL cell culture flask, and cultivated with a 10% fetal bovine serum-containing DMEM/IRP-1640 medium at 37° C., 5% CO2, and 100% humidity, where the medium was changed daily. When growing to a confluency of 80% to 90%, cells were digested with a mixture of trypsin and EDTA and passaged according to 1:3.
(§2) An in vitro cell activity and proliferation inhibition experiment was conducted by an MTT method to investigate an impact of a target compound on a survival activity of each cell. Cells at a logarithmic growth phase were inoculated at 5×10^3 cells (100 μL)/well in a 96-well culture plate and cultivated for 24 h, and then compound solutions with different concentrations prepared in advance were added (100 μL) to the plate. At least 3 replicate wells were set for each concentration. A solvent control group without a compound and a blank control group without a cell were set. Edge wells each were filled with 200 μL of sterilized water. […] A liquid in each well was completely removed carefully, 150 μL of DMSO was added to each well, the plate was gently shaken on a microshaker for 10 min to make a purple crystal fully dissolved, and then an absorbance value was determined at 570 nm by a microplate reader. With a cell viability of the solvent control group without a compound as 100%, a cell survival rate was calculated as follows: a cell survival rate=(an absorbance value of a compound group−an absorbance value of the blank control group)/(an absorbance value of the control group−an absorbance value of the blank control group)×100%. A half-maximal inhibitory concentration (IC50) of a compound for a cell was calculated by the Graphpad Prism 5 software.

[2] = test system: human colon cancer cells HCT116; test: MTT in vitro cell proliferation inhibition experiment, HCT116; conditions: Homo sapiens, HCT-116, MTT method, 48 h contact between compound and cell, read-out: Antiproliferative activity (IC50, μM) HCT116
Experimental: as §1, §2

[3] = test system: human gastric adenocarcinoma cells AGS; test: MTT in vitro cell proliferation inhibition experiment, AGS; conditions: Homo sapiens, MTT method, 48 h contact between compound and cell, read-out: Antiproliferative activity (IC50, μM) AGS
Experimental: as §1, §2

| SMILES | IC50 [1] [µM] | IC50 [2] [µM] | IC50 [3] [µM] |
| --- | --- | --- | --- |
| CC(C)C1NC2(C(=O)c3ccccc3C2=O)C(C(=O)c2nc3ccccc3[nH]2)C1C1CCCCC1 (stereo not drawn) [Compound 25, 3-(1H-benzimidazol-2-carbonyl)-4-cyclohexyl-5-isopropylspiro[inden-2,2′-pyrrolidine]-1,3-dione] | 9.67 | 5.67 | 12.4 |
| CC(C)C1NC2(C(=O)c3ccccc3C2=O)C(C(=O)c2nc3ccccc3[nH]2)C1c1ccc(Cl)c(F)c1 (stereo not drawn) [Compound 26, 3-(1H-benzimidazol-2-carbonyl)-4-(3-fluoro-4-chlorophenyl)-5-isopropylspiro[inden-2,2′-pyrrolidine]-1,3-dione] | > 100 | 79 | 60 |
| CC(C)C1NC2(C(=O)c3ccccc3C2=O)C(C(=O)c2nc3ccccc3[nH]2)C1c1ccc(Cl)cc1 (stereo not drawn) [Compound 27, 3-(1H-benzimidazol-2-carbonyl)-4-(4-chlorophenyl)-5-isopropylspiro[inden-2,2′-pyrrolidine]-1,3-dione] | > 100 | > 100 | 90.1 |
| Cc1ccc(C2C(C(C)C)NC3(C(=O)c4ccccc4C3=O)C2C(=O)c2nc3ccccc3[nH]2)cc1 (stereo not drawn) [Compound 28, 3-(1H-benzimidazol-2-carbonyl)-5-isopropyl-4-p-tolylspiro[inden-2,2′-pyrrolidine]-1,3-dione] | 3.45 | 4.56 | 2.98 |
| CC(C)C1NC2(C(=O)c3ccccc3C2=O)C(C(=O)c2nc3ccccc3[nH]2)C1c1cccc(Br)c1 (stereo not drawn) [Compound 30, 3-(1H-benzimidazol-2-carbonyl)-4-(3-bromophenyl)-5-isopropylspiro[inden-2,2′-pyrrolidine]-1,3-dione] | 2.34 | 3.42 | 2.98 |
| CCOc1ccc(C2C(C(C)C)NC3(C(=O)c4ccccc4C3=O)C2C(=O)c2nc3ccccc3[nH]2)cc1 (stereo not drawn) [Compound 31, 3-(1H-benzimidazol-2-carbonyl)-4-(4-ethoxyphenyl)-5-isopropylspiro[inden-2,2′-pyrrolidine]-1,3-dione] | 44.6 | 56.4 | 59.9 |
| CC(C)C1NC2(C(=O)c3ccccc3C2=O)C(C(=O)c2nc3ccccc3[nH]2)C1c1ccc(Br)cc1 (stereo not drawn) [Compound 32, 3-(1H-benzimidazol-2-carbonyl)-4-(4-bromophenyl)-5-isopropylspiro[inden-2,2′-pyrrolidine]-1,3-dione] | 66.7 | > 100 | > 100 |
| CSCCC1NC2(C(=O)c3ccccc3C2=O)C(C(=O)c2nc3ccccc3[nH]2)C1C1CCCCC1 (stereo not drawn) [Compound 33, 3-(1H-benzimidazol-2-carbonyl)-4-cyclohexyl-5-(methylthio)ethylspiro[inden-2,2′-pyrrolidine]-1,3-dione] | 12.5 | 15.5 | 9.77 |
| CSCCC1NC2(C(=O)c3ccccc3C2=O)C(C(=O)c2nc3ccccc3[nH]2)C1c1ccc(Cl)cc1 (stereo not drawn) [Compound 35, 3-(1H-benzimidazol-2-carbonyl)-4-(4-chlorophenyl)-5-(2-methylthio)ethylspiro[inden-2,2′-pyrrolidine]-1,3-dione] | 40.5 | 42.7 | 45.8 |
| O=C(c1nc2ccccc2[nH]1)C1C(C2CCCCC2)C(c2c[nH]c3ccccc23)NC12C(=O)c1ccccc1C2=O (stereo not drawn) [Compound 41, 3-(1H-benzimidazol-2-carbonyl)-4-cyclohexyl-5-(1H-indol-3-yl)spiro[inden-2,2′-pyrrolidine]-1,3-dione] | 89.6 | 77.4 | 82.3 |
| O=C(c1nc2ccccc2[nH]1)C1C(c2ccc(Cl)c(F)c2)C(c2c[nH]c3ccccc23)NC12C(=O)c1ccccc1C2=O (stereo not drawn) [Compound 42, 3-(1H-benzimidazol-2-carbonyl)-4-(4-chloro-3-fluorophenyl)-5-(1H-indol-3-yl)spiro[inden-2,2′-pyrrolidine]-1,3-dione] | 3.45 | 4.78 | 3.01 |
| O=C(c1nc2ccccc2[nH]1)C1C(c2ccc(Cl)cc2)C(c2c[nH]c3ccccc23)NC12C(=O)c1ccccc1C2=O (stereo not drawn) [Compound 43, 3-(1H-benzimidazol-2-carbonyl)-4-(4-chlorophenyl)-5-(1H-indol-3-yl)spiro[inden-2,2′-pyrrolidine]-1,3-dione] | 34.6 | 55.5 | 39.7 |
| Cc1ccc(C2C(c3c[nH]c4ccccc34)NC3(C(=O)c4ccccc4C3=O)C2C(=O)c2nc3ccccc3[nH]2)cc1 (stereo not drawn) [Compound 44, 3-(1H-benzimidazol-2-carbonyl)-5-(1H-indol-3-yl)-4-p-tolylspiro[inden-2,2′-pyrrolidine]-1,3-dione] | 5.67 | 5.34 | 6.02 |
| CCOc1ccc(C2C(c3c[nH]c4ccccc34)NC3(C(=O)c4ccccc4C3=O)C2C(=O)c2nc3ccccc3[nH]2)cc1OCC (stereo not drawn) [Compound 45, 3-(1H-benzimidazol-2-carbonyl)-3,4-diethoxyphenyl-5-(1H-indol-3-yl)spiro[inden-2,2′-pyrrolidine]-1,3-dione] | > 100 | 56.4 | > 100 |
| O=C(c1nc2ccccc2[nH]1)C1C(c2cccc(Br)c2)C(c2c[nH]c3ccccc23)NC12C(=O)c1ccccc1C2=O (stereo not drawn) [Compound 46, 3-(1H-benzimidazol-2-carbonyl)-4-(3-bromophenyl)-5-(1H-indol-3-yl)spiro[inden-2,2′-pyrrolidine]-1,3-dione] | 12.2 | 18.4 | 21.4 |
| CCOc1ccc(C2C(c3c[nH]c4ccccc34)NC3(C(=O)c4ccccc4C3=O)C2C(=O)c2nc3ccccc3[nH]2)cc1 (stereo not drawn) [Compound 47] | 34.6 | 39.8 | 38 |
| O=C(c1nc2ccccc2[nH]1)C1C(c2ccc(Br)cc2)C(c2c[nH]c3ccccc23)NC12C(=O)c1ccccc1C2=O (stereo not drawn) [Compound 48] | 40.2 | 37.8 | 44.2 |

Other lines, results leading:

| IC50 [1] [µM] | IC50 [2] [µM] | IC50 [3] [µM] | SMILES |
| --- | --- | --- | --- |
| 44.6 | 53.2 | 67.1 | CCOc1ccc(C2C(C(C)C)NC3(C(=O)c4ccccc4C3=O)C2C(=O)c2nc3ccccc3[nH]2)cc1OCC (stereo not drawn) [Compound 29, 3-(1H-benzimidazol-2-carbonyl)-3,4-diethoxyphenyl-5-isopropylspiro[inden-2,2′-pyrrolidine]-1,3-dione] |
| 36.6 | 44.7 | 39.7 | CSCCC1NC2(C(=O)c3ccccc3C2=O)C(C(=O)c2nc3ccccc3[nH]2)C1c1ccc(Cl)c(F)c1 (stereo not drawn) [Compound 34, 3-(1H-benzimidazol-2-carbonyl)-4-(4-chloro-3-fluorophenyl)-5-(2-methylthio)ethylspiro[inden-2,2′-pyrrolidine]-1,3-dione] |
| 13.5 | 15.5 | 9.78 | CSCCC1NC2(C(=O)c3ccccc3C2=O)C(C(=O)c2nc3ccccc3[nH]2)C1c1ccc(C)cc1 (stereo not drawn) [Compound 36, 3-(1H-benzimidazol-2-carbonyl)-5-(2-methylthio)ethyl-4-p-tolylspiro[inden-2,2′-pyrrolidine]-1,3-dione] |
| > 100 | > 100 | 78.6 | CCOc1ccc(C2C(CCSC)NC3(C(=O)c4ccccc4C3=O)C2C(=O)c2nc3ccccc3[nH]2)cc1OCC (stereo not drawn) [Compound 37, 3-(1H-benzimidazol-2-carbonyl)-3,4-diethoxyphenyl-5-(2-methylthio)ethylspiro[inden-2,2′-pyrrolidine]-1,3-dione] |
| 49.8 | 47.4 | 40.9 | CSCCC1NC2(C(=O)c3ccccc3C2=O)C(C(=O)c2nc3ccccc3[nH]2)C1c1cccc(Br)c1 (stereo not drawn) [Compound 38, 3-(1H-benzimidazol-2-carbonyl)-4-(3-bromophenyl)-5-(2-methylthio)ethylspiro[inden-2,2′-pyrrolidine]-1,3-dione] |
| > 100 | > 100 | > 100 | CCOc1ccc(C2C(CCSC)NC3(C(=O)c4ccccc4C3=O)C2C(=O)c2nc3ccccc3[nH]2)cc1 (stereo not drawn) [Compound 39, 3-(1H-benzimidazol-2-carbonyl)-4-(4-ethoxyphenyl)-5-(2-methylthio)ethylspiro[inden-2,2′-pyrrolidine]-1,3-dione] |
| 9.56 | 56.7 | 66.2 | CSCCC1NC2(C(=O)c3ccccc3C2=O)C(C(=O)c2nc3ccccc3[nH]2)C1c1ccc(Br)cc1 (stereo not drawn) [Compound 40, 3-(1H-benzimidazol-2-carbonyl)-4-(4-bromophenyl)-5-(2-methylthio)ethylspiro[inden-2,2′-pyrrolidine]-1,3-dione] |
